Reference: ChEMBL document CHEMBL4376803, “Recent Advances in the Exploration of Therapeutic Analogues of Gramicidin S, an Old but Still Potent Antimicrobial Peptide” (J Med Chem, 2019)
≈ marks a conversion by molar mass, not a printed value. Square brackets hold non-standard residues; d marks the D form. Peptide text beside a SMILES is read from it.

Tests used:
[1] = system: Erythrocyte; assay: Hemolytic activity against RBC (unknown origin) at 100 ul after 4 hrs; assay type: ADME, cell-based; conditions: erythrocyte, 4 h
[2] = system: Staphylococcus aureus; assay: Antibacterial activity against Staphylococcus aureus ATCC 25923 after 22 hrs by double dilution method; assay type: functional; conditions: ATCC 25923, 22 h
[3] = system: Escherichia coli; assay: Antibacterial activity against Escherichia coli ATCC 25922 after 22 hrs by double dilution method; assay type: functional; conditions: ATCC 25922, 22 h
[4] = system: Pseudomonas aeruginosa; assay: Antibacterial activity against Pseudomonas aeruginosa ATCC 27853 after 22 hrs by double dilution method; assay type: functional; conditions: ATCC 27853, 22 h
[5] = system: Enterococcus faecalis; assay: Antibacterial activity against Enterococcus faecalis ATCC 29212 after 22 hrs by double dilution method; assay type: functional; conditions: ATCC 29212, 22 h
[6] = system: Staphylococcus epidermidis; assay: Antibacterial activity against Staphylococcus epidermidis ATCC 12228 after 22 hrs by double dilution method; assay type: functional; conditions: ATCC 12228, 22 h
[7] = system: Erythrocyte; assay: Haemolytic activity in human RBC after 30 mins by spectrophotometric analysis; assay type: ADME, cell-based; conditions: 0.5 h
[8] = Therapeutic index, ratio of HC90 for hemolytic activity in human erythrocytes to MIC against Escherichia coli ATCC 25922; assay type: toxicity, cell-based; conditions: read-out: TI
[9] = Therapeutic index, ratio of HC90 for hemolytic activity in human erythrocytes to MIC against Pseudomonas aeruginosa ATCC 27853; assay type: toxicity, cell-based; conditions: read-out: TI
[10] = Therapeutic index, ratio of HC90 for hemolytic activity in human erythrocytes to MIC against Enterococcus faecalis ATCC 29212; assay type: toxicity, cell-based; conditions: read-out: TI
[11] = Therapeutic index, ratio of HC90 for hemolytic activity in human erythrocytes to MIC against Staphylococcus aureus ATCC 25923; assay type: toxicity, cell-based; conditions: read-out: TI
[12] = Therapeutic index, ratio of HC90 for hemolytic activity in human erythrocytes to MIC against Staphylococcus epidermidis ATCC 12228; assay type: toxicity, cell-based; conditions: read-out: TI
[13] = system: Escherichia coli; assay: Antibacterial activity against Escherichia coli after 24 hrs by microtitre dilution method; assay type: functional
[14] = system: Pseudomonas aeruginosa; assay: Antibacterial activity against Pseudomonas aeruginosa after 24 hrs by microtitre dilution method; assay type: functional
[15] = system: Enterococcus faecalis; assay: Antibacterial activity against Enterococcus faecalis after 24 hrs by microtitre dilution method; assay type: functional
[16] = system: Staphylococcus aureus; assay: Antibacterial activity against Staphylococcus aureus after 24 hrs by microtitre dilution method; assay type: functional
[17] = system: Candida albicans; assay: Antibacterial activity against Candida albicans after 24 hrs by microtitre dilution method; assay type: functional
[18] = Therapeutic index, ratio of HD100 for hemolytic activity in human erythrocytes to MIC against Pseudomonas aeruginosa; assay type: toxicity, cell-based; conditions: read-out: TI
[19] = Therapeutic index, ratio of HD100 for hemolytic activity in human erythrocytes to MIC against Escherichia coli; assay type: toxicity, cell-based; conditions: read-out: TI
[20] = Therapeutic index, ratio of HD100 for hemolytic activity in human RBC to MIC against Enterococcus faecalis; assay type: toxicity; conditions: human red blood cells, read-out: TI
[21] = Therapeutic index, ratio of HD100 for hemolytic activity in human RBC to MIC against Staphylococcus aureus; assay type: toxicity; conditions: human red blood cells, read-out: TI
[22] = system: Escherichia coli; assay: Antibacterial activity against Escherichia coli ATCC 25922 after overnight incubation; assay type: functional
[23] = system: Enterococcus faecalis; assay: Antibacterial activity against Enterococcus faecalis ATCC 29212 after overnight incubation; assay type: functional
[24] = system: Staphylococcus aureus; assay: Antibacterial activity against Staphylococcus aureus ATCC 29213 after overnight incubation; assay type: functional
[25] = system: Pseudomonas aeruginosa; assay: Antibacterial activity against Pseudomonas aeruginosa ATCC 27853 after overnight incubation; assay type: functional
[26] = system: Staphylococcus epidermidis; assay: Antibacterial activity against Staphylococcus epidermidis ATCC 12228 after overnight incubation; assay type: functional
[27] = system: Bacillus cereus; assay: Antibacterial activity against Bacillus cereus ATCC 11778 after overnight incubation; assay type: functional

**Q.** For `CC(C)C[C@@H]1NC(=O)[C@H](CCCN)NC(=O)[C@H](C(C)C)NC(=O)[C@@H]2CCCN2C(=O)[C@@H](Cc2ccccc2)NC(=O)[C@H](CC(C)C)NC(=O)[C@H](CCCN)NC(=O)[C@H](C(C)C)NC(=O)[C@H]2CC[C@H](OCc3ccccc3)[C@@H](CNC1=O)O2`, which HD100 [1] is on record?
**A.** 500 µg/mL

**Q.** Which results are given for `CCCCCCCC[C@H]1CC2C(C1)[C@@H]1SC[C@H]3C(=O)N[C@@H](C(C)C)C(=O)N[C@@H](CCCN)C(=O)N[C@@H](CC(C)C)C(=O)N[C@H](Cc4ccccc4)C(=O)N4CCC[C@H]4C(=O)N[C@@H](C(C)C)C(=O)N[C@H](CCCN)C(=O)N[C@@H](CC(C)C)C(=O)N[C@H]2C(=O)N31` (some centres not stated)?
**A.** MIC [2]: 4 µg/mL (≈ 3.21 µM); MIC [3]: 64 µg/mL (≈ 51.3 µM); MIC [4]: 128 µg/mL (≈ 103 µM); MIC [5]: 8 µg/mL (≈ 6.41 µM); MIC [6]: 4 µg/mL (≈ 3.21 µM); HC90 [7]: 38 µg/mL; selectivity ratio [8]: 0.59; selectivity ratio [9]: 0.3; selectivity ratio [10]: 4.75; selectivity ratio [11]: 9.5; selectivity ratio [12]: 9.5

**Q.** Which results are given for `CC(C)C[C@@H]1NC(=O)[C@H](CCCCN)NC(=O)[C@H](C(C)C)NC(=O)[C@@H]2CCCN2C(=O)[C@@H](Cc2ccc(O)cc2)NC(=O)[C@H](CC(C)C)NC(=O)[C@H](CCCCN)NC(=O)[C@H](C(C)C)NC(=O)[C@H](CCCCN)NC(=O)[C@H](CC(C)C)NC(=O)[C@H](CCCCN)NC(=O)[C@@H]2CCCN2C(=O)[C@@H](Cc2ccc(O)cc2)NC(=O)[C@H](CCCCN)NC(=O)[C@H](C(C)C)NC(=O)[C@H](CCCCN)NC1=O` (cyclo(VKLKVK[dY]PKLKVKL[dY]P))?
**A.** MIC [13]: 4 µg/mL (≈ 2.08 µM); MIC [14]: 64 µg/mL (≈ 33.2 µM); MIC [15]: 4 µg/mL (≈ 2.08 µM); MIC [16]: 8 µg/mL (≈ 4.15 µM); MIC [17]: 16 µg/mL (≈ 8.31 µM); selectivity ratio [18]: > 3.1; selectivity ratio [19]: > 50; selectivity ratio [20]: > 50; selectivity ratio [21]: > 25

**Q.** What does the source list for `CC(C)C[C@@H]1NC(=O)[C@H](CCCN)NC(=O)[C@H](C(C)C)NC(=O)[C@@H]2CCCN2C(=O)[C@@H](Cc2ccccc2)NC(=O)[C@H](CC(C)C)NC(=O)[C@H](CCCN)NC(=O)[C@H](C(C)C)NC(=O)[C@@H]2O[C@H](CNC1=O)[C@@H](OCc1ccc3ccccc3c1)[C@@H]2O`?
**A.** MIC [22]: > 64 µg/mL; MIC [23]: 8 µg/mL (≈ 6.69 µM); MIC [24]: 4 to 8 µg/mL (≈ 3.34 to 6.69 µM); MIC [25]: > 64 µg/mL; MIC [26]: 2 µg/mL (≈ 1.67 µM); MIC [27]: 4 µg/mL (≈ 3.34 µM)
